Data as given in the NIST ThermoML archive (doi:10.1016/j.jct.2011.02.012).
± gives the expanded uncertainty stated by the source.

Assay: activity coefficient (dimensionless); of the first substance listed, at infinite dilution; xn = mol fraction of the nth substance listed
Conditions: Liquid, Chromatography, x1 = 0

| SMILES | activity coefficient (308.15 K) | activity coefficient (318.15 K) | activity coefficient (328.15 K) | activity coefficient (338.15 K) | activity coefficient (348.15 K) | activity coefficient (358.15 K) | activity coefficient (298.15 K) |
| --- | --- | --- | --- | --- | --- | --- | --- |
| CCCCC(C)=O [2-hexanone] + CCn1cc[n+](C)c1.N#C[B-](C#N)(C#N)C#N | 1.11 ± 0.07 | 1.12 ± 0.07 | 1.14 ± 0.07 | 1.16 ± 0.07 | 1.17 ± 0.07 | 1.09 ± 0.07 | – |
| C1CCCCCC1 [cycloheptane] + CCn1cc[n+](C)c1.N#C[B-](C#N)(C#N)C#N | 19.9 ± 1.4 | 18.6 ± 1.3 | 17 ± 1.2 | 15.8 ± 1.1 | 14.8 ± 1 | 13.9 ± 1 | 21.9 ± 1.5 |
| CC(C)CC(C)(C)C [2,2,4-trimethylpentane] + CCn1cc[n+](C)c1.N#C[B-](C#N)(C#N)C#N | 54.3 ± 3.7 | 50.4 ± 3.5 | 46.4 ± 3.2 | 42.3 ± 2.9 | 39.5 ± 2.7 | 36.7 ± 2.5 | 60.3 ± 4.1 |
| CCCCC [pentane] + CCn1cc[n+](C)c1.N#C[B-](C#N)(C#N)C#N | 20.1 ± 1.4 | 19.1 ± 1.3 | 17.6 ± 1.2 | 16.6 ± 1.1 | 15.8 ± 1.1 | 14.9 ± 1 | 22 ± 1.5 |
| Cc1cccc(C)c1 [1,3-dimethylbenzene] + CCn1cc[n+](C)c1.N#C[B-](C#N)(C#N)C#N | 2.56 ± 0.17 | 2.58 ± 0.18 | 2.6 ± 0.18 | 2.61 ± 0.18 | 2.63 ± 0.18 | 2.64 ± 0.18 | – |
| CCCCO [butan-1-ol] + CCn1cc[n+](C)c1.N#C[B-](C#N)(C#N)C#N | 2.41 ± 0.16 | 2.16 ± 0.15 | 1.95 ± 0.13 | 1.79 ± 0.12 | 1.65 ± 0.11 | 1.53 ± 0.1 | 2.72 ± 0.19 |
| C1CCCCCCC1 [cyclooctane] + CCn1cc[n+](C)c1.N#C[B-](C#N)(C#N)C#N | 26.6 ± 1.8 | 24.7 ± 1.7 | 22.5 ± 1.5 | 20.8 ± 1.4 | 19.2 ± 1.3 | 17.9 ± 1.2 | 29.7 ± 2 |
| C#CCCCCCC [1-octyne] + CCn1cc[n+](C)c1.N#C[B-](C#N)(C#N)C#N | 8.48 ± 0.58 | 8.31 ± 0.57 | 8.15 ± 0.56 | 7.99 ± 0.54 | 7.86 ± 0.54 | 7.73 ± 0.53 | 8.66 ± 0.59 |
| C=CCCCCCC [oct-1-ene] + CCn1cc[n+](C)c1.N#C[B-](C#N)(C#N)C#N | 32 ± 2.2 | 29.9 ± 2 | 27.8 ± 1.9 | 25.9 ± 1.8 | 24.5 ± 1.7 | 23.1 ± 1.6 | 35 ± 2.4 |
| CCCO [propan-1-ol] + CCn1cc[n+](C)c1.N#C[B-](C#N)(C#N)C#N | 1.81 ± 0.12 | 1.65 ± 0.11 | 1.5 ± 0.1 | 1.39 ± 0.09 | 1.3 ± 0.08 | 1.21 ± 0.08 | 2.01 ± 0.14 |
| O [water] + CCn1cc[n+](C)c1.N#C[B-](C#N)(C#N)C#N | 1.99 ± 0.14 | 1.82 ± 0.12 | 1.66 ± 0.11 | 1.51 ± 0.1 | 1.38 ± 0.09 | 1.29 ± 0.08 | 2.24 ± 0.15 |
| CC(C)=O [acetone] + CCn1cc[n+](C)c1.N#C[B-](C#N)(C#N)C#N | 0.443 ± 0.036 | 0.454 ± 0.036 | 0.466 ± 0.036 | 0.475 ± 0.037 | 0.488 ± 0.037 | 0.43 ± 0.035 | – |
| CCCCCCC [heptane] + CCn1cc[n+](C)c1.N#C[B-](C#N)(C#N)C#N | 47.9 ± 3.3 | 44.1 ± 3 | 39.9 ± 2.7 | 36.7 ± 2.5 | 34.3 ± 2.3 | 31.7 ± 2.2 | 53.4 ± 3.7 |
| C=CCCC [1-pentene] + CCn1cc[n+](C)c1.N#C[B-](C#N)(C#N)C#N | 8.83 ± 0.6 | 8.56 ± 0.58 | 8.24 ± 0.56 | 7.97 ± 0.54 | 7.71 ± 0.53 | 7.52 ± 0.51 | 9.24 ± 0.63 |
| CCCCCCCCCC [decane] + CCn1cc[n+](C)c1.N#C[B-](C#N)(C#N)C#N | 177 ± 12 | 156 ± 11 | 137 ± 9 | 122 ± 8 | 108 ± 7 | 96.7 ± 6.6 | 203 ± 14 |
| CCC(C)(C)OC [2-methoxy-2-methylbutane] + CCn1cc[n+](C)c1.N#C[B-](C#N)(C#N)C#N | 4.19 ± 0.29 | 4.22 ± 0.29 | 4.25 ± 0.29 | 4.28 ± 0.29 | 4.3 ± 0.29 | 4.32 ± 0.29 | 4.15 ± 0.28 |
